The record followed here is PMC11434480, “Discovery and Optimization of Ergosterol Peroxide Derivatives as Novel Glutaminase 1 Inhibitors for the Treatment of Triple-Negative Breast Cancer” (Molecules, 2024).

One test relates to A549. The test is described as follows: MTT antiproliferative assay, A549. The format is cell-based, human. The following applies: mean of three experiments ± SD.
The next test has as its system MDA-MB-231. The test is described as follows: MTT antiproliferative assay, MDA-MB-231. The format is cell-based, human. The note with it: MTT, 48 h, mean of three experiments ± SD.
A further test deals with HepG2. The test is described as follows: MTT antiproliferative assay, HepG2. The note with it: mean of three experiments ± SD. Format: cell-based, human.
The subject of another test is MCF-7. The test is described as follows: MTT antiproliferative assay, MCF-7. Format: cell-based, human. The note with it: mean of three experiments ± SD.
The target of a further test is T1, human GLS1 (Homo sapiens, UniProt O94925).
T1 sequence (O94925 55-669): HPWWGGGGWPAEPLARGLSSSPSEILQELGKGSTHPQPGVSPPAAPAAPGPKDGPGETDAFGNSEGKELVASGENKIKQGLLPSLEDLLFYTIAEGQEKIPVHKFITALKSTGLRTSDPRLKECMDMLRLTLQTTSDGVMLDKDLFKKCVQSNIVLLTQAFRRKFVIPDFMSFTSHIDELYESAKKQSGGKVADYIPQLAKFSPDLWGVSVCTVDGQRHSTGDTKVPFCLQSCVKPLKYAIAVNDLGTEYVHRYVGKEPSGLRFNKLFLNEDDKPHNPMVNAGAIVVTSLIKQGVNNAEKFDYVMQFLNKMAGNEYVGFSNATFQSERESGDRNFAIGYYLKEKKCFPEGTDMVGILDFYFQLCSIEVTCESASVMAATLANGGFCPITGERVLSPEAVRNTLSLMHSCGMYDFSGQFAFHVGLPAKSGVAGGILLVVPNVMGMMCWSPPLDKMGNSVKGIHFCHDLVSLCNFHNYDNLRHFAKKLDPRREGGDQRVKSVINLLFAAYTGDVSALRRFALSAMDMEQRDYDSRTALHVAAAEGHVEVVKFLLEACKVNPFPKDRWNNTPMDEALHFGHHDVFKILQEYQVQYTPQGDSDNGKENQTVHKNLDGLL
The test is described as follows: GLS1 inhibitor screening kit in MDA-MB-231 cells. The format is cell-based. The following applies: 48 h, read-out: GLS1 inhibition IC50. The procedure: The GLS1 inhibitory activity of compound 3g in MDA-MB-231 cells was evaluated using a GLS1 inhibitor screening kit.
MDA-MB-231 cells were cultured for 24 h and then incubated with different concentrations of 3g or 0.1%DMSO for 48 h and washed with PBS 1–2 times. The cells were then collected, subjected to ultrasound in an ice bath for 5 min, and centrifuged at 4 °C and 1200 g for 15 min. Next, the GLS1 activity in human GLS1 was evaluated according to the manufacturer’s guidelines using a GLS1 screening kit (Sangon Biotech #D799306, Shanghai, China) in a 96-well plate (Corning # 351172, New York, NY, USA).

SMILES strings stand for the structures.

Method for A549: (§1) The in vitro antiproliferative activity of the novel EP derivatives (1a–h, 2a–h, 3a–h, and 4a–h) was evaluated on four different human cancer cell lines (A549, HepG2, MCF-7, and MDA-MB-231) using an MTT assay.
(§2) Cells containing 10% fetal bovine serum (FBS; WISENT, Nanjing, China) were cultured in an L-15 culture medium (L-15, BOSTER, Wuhan, China) in an incubator at 37 °C. The cells were then inoculated into 96-well plates at a density of 5 × 10^3/well, cultured in 100 μL L-15 medium for 24 h, and incubated with the compound to be tested for 48 h. Next, 20 μL of MTT (5 mg/mL) solution was added and incubated at 37 °C for 4 h away from light. A resorption culture medium was then supplemented with 150 μL DMSO per well. The absorbance was measured at 570 nm using an enzymometer (SAFIRE2, Tecan, Swiss Confederation, Männedorf, Switzerland). The cytotoxic activity was presented in terms of half the inhibition rate.
Method for HepG2: as §1, §2
Method for MCF-7: as §1, §2

Consider `CC(C)C(C)C=CC(C)C1CCC2C1(C)CCC1C23C=CC2(CC(OC(=O)c4ccccc4C(=O)Nc4nc5cc(F)ccc5s4)CCC12C)OO3` (centres unmarked) [Compound 4c, Ergosterol peroxide-3-(2-((5-fluorobenzo[d]thiazol-2-yl)carbamoyl)benzoate)], for which the IC50 with A549 (Homo sapiens, A549, 48 h) stood at 11.7 ± 1.02 µM; in the test on MDA-MB-231 (Homo sapiens, MDA-MB-231), 7.32 ± 0.58 µM; with HepG2 (Homo sapiens, HepG2, 48 h), 11.4 ± 0.98 µM; with MCF-7 (Homo sapiens, MCF7, 48 h) it was 10.7 ± 0.47 µM.

Take `CC(C)C(C)C=CC(C)C1CCC2C1(C)CCC1C23C=CC2(CC(OC(=O)CCCC(=O)Nc4ccc(F)cc4)CCC12C)OO3` (centres unmarked) [Compound 3f, Ergosterol peroxide-3-(5-((4-fluorophenyl)amino)-5-oxopentanoate)]: the concentration for half-maximal inhibition (IC50) with A549 (Homo sapiens, A549, 48 h) turned out to be 11.1 ± 0.93 µM; in the test with MDA-MB-231 (Homo sapiens, MDA-MB-231) it was 7.19 ± 0.39 µM; in the test with HepG2 (Homo sapiens, HepG2, 48 h), 9.79 ± 1.01 µM; in the test on MCF-7 (Homo sapiens, MCF7, 48 h) it was 8.09 ± 0.71 µM.

On to `CC(C)C(C)C=CC(C)C1CCC2C1(C)CCC1C23C=CC2(CC(OC(=O)c4ccccc4C(=O)Nc4nccs4)CCC12C)OO3` (centres unmarked) [Compound 4b, Ergosterol peroxide-3-(2-oxo-5-((thiazol-2-yl)carbamoyl)benzoate)], for which the half-maximal inhibitory concentration (IC50) in the test on A549 (Homo sapiens, A549, 48 h) worked out at 12.8 ± 1.08 µM; with MDA-MB-231 (Homo sapiens, MDA-MB-231), 15.8 ± 1.26 µM; in the test on HepG2 (Homo sapiens, HepG2, 48 h), 11 ± 0.76 µM; with MCF-7 (Homo sapiens, MCF7, 48 h), 12.6 ± 0.94 µM.

As to `CC(C)C(C)C=CC(C)C1CCC2C1(C)CCC1C23C=CC2(CC(OC(=O)CCCC(=O)Nc4nc5ccc(F)cc5s4)CCC12C)OO3` (centres unmarked) [Compound 3d, Ergosterol peroxide-3-(5-((6-fluorobenzo[d]thiazol-2-yl)amino)-5-oxopentanoate)], the half-maximal inhibitory concentration (IC50) with A549 (Homo sapiens, A549, 48 h) is 9.09 ± 0.64 µM; in the test with MDA-MB-231 (Homo sapiens, MDA-MB-231) it was 10.8 ± 0.53 µM; with HepG2 (Homo sapiens, HepG2, 48 h), 14.7 ± 0.35 µM; in the test on MCF-7 (Homo sapiens, MCF7, 48 h) it was 8.39 ± 0.34 µM.

Regarding `N.N.[Cl][Pt][Cl]` [Cisplatin, reference compound], the IC50 turned out to be 11.6 ± 0.38 µM in the test on A549 (48 h), 10.4 ± 0.34 µM in the test on MDA-MB-231, 6.29 ± 0.3 µM in the test on HepG2 (48 h) and 4.23 ± 0.24 µM with MCF-7 (48 h).

In the case of `CC(C)C(C)C=CC(C)C1CCC2C1(C)CCC1C23C=CC2(CC(OC(=O)CCCC(=O)Nc4nccs4)CCC12C)OO3` (centres unmarked) [Compound 3b, Ergosterol peroxide-3-(5-oxo-5-(thiazol-2-ylamino)pentanoate)], the half-maximal inhibitory concentration (IC50) in the test on A549 (Homo sapiens, A549, 48 h) is 11.7 ± 0.82 µM; in the test with MDA-MB-231 (Homo sapiens, MDA-MB-231) it was 6.92 ± 0.28 µM; in the test with HepG2 (Homo sapiens, HepG2, 48 h), 13.1 ± 1.22 µM; in the test with MCF-7 (Homo sapiens, MCF7, 48 h), 9.47 ± 0.75 µM.

Consider `CC(C)C(C)C=CC(C)C1CCC2C1(C)CCC1C23C=CC2(CC(OC(=O)CCCC(=O)Nc4nncs4)CCC12C)OO3` (centres unmarked) [Compound 3a, Ergosterol peroxide-3-(5-((1,3,4-thiadiazol-2-yl)amino)-5-oxopentanoate)], for which the IC50 stood at 9.73 ± 0.42 µM with A549 (Homo sapiens, A549, 48 h); 7.06 ± 0.35 µM with MDA-MB-231 (Homo sapiens, MDA-MB-231); 10.7 ± 0.82 µM with HepG2 (Homo sapiens, HepG2, 48 h); 5.16 ± 0.93 µM in the test with MCF-7 (Homo sapiens, MCF7, 48 h).

Take `CC(C)C(C)C=CC(C)C1CCC2C1(C)CCC1C23C=CC2(CC(OC(=O)c4ccccc4C(=O)Nc4nc5ccc(F)cc5s4)CCC12C)OO3` (centres unmarked) [Compound 4d, Ergosterol peroxide-3-(2-((6-fluorobenzo[d]thiazol-2-yl)carbamoyl)benzoate)]: the IC50 in the test with A549 (Homo sapiens, A549, 48 h) was 8.99 ± 0.81 µM; in the test on MDA-MB-231 (Homo sapiens, MDA-MB-231) it was 11.3 ± 0.44 µM; in the test with HepG2 (Homo sapiens, HepG2, 48 h), 15.3 ± 1.31 µM; with MCF-7 (Homo sapiens, MCF7, 48 h), 10.6 ± 0.52 µM.

As to `CC(C)C(C)C=CC(C)C1CCC2C1(C)CCC1C23C=CC2(CC(OC(=O)CCCC(=O)Nc4nc5cc(F)ccc5s4)CCC12C)OO3` (centres unmarked) [Compound 3c, Ergosterol peroxide-3-(5-((5-fluorobenzo[d]thiazol-2-yl)amino)-5-oxopentanoate)], the concentration for half-maximal inhibition (IC50) in the test on A549 (Homo sapiens, A549, 48 h) turned out to be 11.4 ± 0.79 µM; in the test with MDA-MB-231 (Homo sapiens, MDA-MB-231), 12 ± 0.72 µM; in the test on HepG2 (Homo sapiens, HepG2, 48 h) it was 11.9 ± 1.07 µM; with MCF-7 (Homo sapiens, MCF7, 48 h) it was 11 ± 0.62 µM.

`CC(C)C(C)C=CC(C)C1CCC2C1(C)CCC1C23C=CC2(CC(OC(=O)c4ccccc4C(=O)Nc4nncs4)CCC12C)OO3` (centres unmarked) [Compound 4a, Ergosterol peroxide-3-(2-((1,3,4-thiadiazol-2-yl)carbamoyl)benzoate)]: the IC50 came to 7.07 ± 0.47 µM in the test on A549 (Homo sapiens, A549, 48 h); 10.2 ± 0.62 µM with MDA-MB-231 (Homo sapiens, MDA-MB-231); 8.08 ± 0.64 µM with HepG2 (Homo sapiens, HepG2, 48 h); 8.2 ± 0.68 µM in the test on MCF-7 (Homo sapiens, MCF7, 48 h).

Take `CC(C)C(C)C=CC(C)C1CCC2C1(C)CCC1C23C=CC2(CC(OC(=O)CCCC(=O)Nc4ccccc4)CCC12C)OO3` (centres unmarked) [Compound 3e, Ergosterol peroxide-3-(5-oxo-5-(phenylamino)pentanoate)]: the half-inhibitory concentration (IC50) in the test on A549 (Homo sapiens, A549, 48 h) turned out to be 10.5 ± 0.79 µM; in the test on MDA-MB-231 (Homo sapiens, MDA-MB-231), 4.78 ± 0.41 µM; with HepG2 (Homo sapiens, HepG2, 48 h), 14.9 ± 1.13 µM; with MCF-7 (Homo sapiens, MCF7, 48 h), 11.6 ± 0.66 µM.

As to `CC(C)C(C)C=CC(C)C1CCC2C1(C)CCC1C23C=CC2(CC(OC(=O)c4ccccc4C(=O)Nc4ccc(F)cc4)CCC12C)OO3` (centres unmarked) [Compound 4f, Ergosterol peroxide-3-(2-((4-fluorophenyl)carbamoyl)benzoate)], the IC50 in the test on A549 (Homo sapiens, A549, 48 h) amounted to 18.8 ± 0.64 µM; with MDA-MB-231 (Homo sapiens, MDA-MB-231), 13.4 ± 1.24 µM; with HepG2 (Homo sapiens, HepG2, 48 h), 9.02 ± 0.87 µM; in the test on MCF-7 (Homo sapiens, MCF7, 48 h), 9.64 ± 0.51 µM.

On to `CC(C)C(C)C=CC(C)C1CCC2C1(C)CCC1C23C=CC2(CC(OC(=O)c4ccccc4C(=O)Nc4ccc5ccccc5c4)CCC12C)OO3` (centres unmarked) [Compound 4h, Ergosterol peroxide-3-(2-(naphthalen-2-ylcarbamoyl)benzoate)], for which the IC50 came out at 10.1 ± 1.16 µM in the test on A549 (Homo sapiens, A549, 48 h); 14.6 ± 0.47 µM in the test on MDA-MB-231 (Homo sapiens, MDA-MB-231); 14.3 ± 1.55 µM in the test with HepG2 (Homo sapiens, HepG2, 48 h); 11.4 ± 0.42 µM in the test with MCF-7 (Homo sapiens, MCF7, 48 h).

Regarding `CC(C)[C@@H](C)/C=C/[C@@H](C)[C@H]1CC[C@@H]2[C@]1(C)CC[C@H]1[C@]23C=C[C@]2(C[C@@H](O)CC[C@]12C)OO3` [EP, Ergosterol peroxide], the half-inhibitory concentration (IC50) turned out to be 15 ± 1.27 µM in the test with A549 (Homo sapiens, A549, 48 h); 17.3 ± 1.05 µM in the test with MDA-MB-231 (Homo sapiens, MDA-MB-231); 18.1 ± 1.71 µM in the test on HepG2 (Homo sapiens, HepG2, 48 h); 19.4 ± 1.5 µM in the test on MCF-7 (Homo sapiens, MCF7, 48 h); 33.7 µM at human GLS1.

For the compound `CC(C)C(C)C=CC(C)C1CCC2C1(C)CCC1C23C=CC2(CC(OC(=O)CCCC(=O)Nc4ccc5ccccc5c4)CCC12C)OO3` (centres unmarked) [Compound 3h, Ergosterol peroxide-3-(5-(naphthalen-2-ylamino)-5-oxopentanoate)], the 50% inhibitory concentration (IC50) with A549 (Homo sapiens, A549, 48 h) was determined as 9.3 ± 0.66 µM; with MDA-MB-231 (Homo sapiens, MDA-MB-231), 4.98 ± 0.84 µM; in the test with HepG2 (Homo sapiens, HepG2, 48 h), 13.8 ± 1.3 µM; in the test on MCF-7 (Homo sapiens, MCF7, 48 h), 8.65 ± 0.73 µM.

`O=C(Cc1ccccc1)Nc1nnc(CCSCCc2nnc(NC(=O)Cc3ccccc3)s2)s1` [BPTES, reference compound]: the IC50 was determined as 49.1 ± 11.6 µM with A549 (Homo sapiens, A549, 48 h); 9.1 ± 0.26 µM in the test with MDA-MB-231 (Homo sapiens, MDA-MB-231); 60.2 ± 8.35 µM in the test on HepG2 (Homo sapiens, HepG2, 48 h); 21.3 ± 6.89 µM in the test with MCF-7 (Homo sapiens, MCF7, 48 h).
